Read-outs that look alike come from different tables or passages of the source.
Tests used:
[1] = system: SD rat, Unilateral Ureteral Obstruction (UUO) model; assay: Rat UUO model of renal interstitial fibrosis, histological score (Example 8); assay type: in vivo; settings: UUO rats; AKF-PD 500 mg/kg/d, Enalapril 10 mg/kg/d by gavage; 14 days post surgery; Radford's method
Method: Anti-fibrotic effect of AKF-PD was tested on a SD rat model for renal interstitial fibrosis induced by surgical ligation of single side ureter (Unilateral Ureteral Obstruction, UUO, model). Eight weeks old male SD rats (180 g˜220 g) were randomly divided into sham surgical group, disease model group, Enalapril (10 mg/kg/d) group and AKF-PD (500 mg/kg/d) group. […] The animals of the sham surgical group experienced the same surgical procedure except the ligation step. The respective drugs were administrated by gavage to rats in the groups of Enalapril and AKF-PD from one day prior to the procedure to 14 days post surgical procedure. Normal saline was administrated in a similar fashion to the rats in the groups of disease model and sham surgical. The animals were sacrificed 14 days after surgical procedure and their left kidney were removed for pathological (HE staining) examination. Histological scoring for interstitial compartment was done according to Radford's method (Radford et al., Predicting renal outcome in IgA nephropathy. J. Am. Soc. Nephrol. 8: 199-207(1997)).

[2] = system: Kun Ming (KM) mice infected with Schistosoma miracidium; assay: Schistosomial liver fibrosis in Kun Ming mice, egg granuloma area and immunohistology; assay type: in vivo; settings: for Schistosomo Egg Granuloma Area, Mean: all after Pyquiton 650 mg/kg 4 days, AKF-PD 500 mg/kg daily gavage, γ-interferon 50,000 unit daily i.m., 8 weeks
Text: Kun Ming (KM) mice were infected with Schistosoma miracidium to induce schistosomial liver fibrosis. […] Ten Schistosoma miracidium were placed on shaved abdominal skin of each mouse for infection. […] Five hundred mg/kg AKF-PD were given daily by gavage to the disinfected mice of infected/AKF-PD group. The disinfected mice were given (i.m.) 50,000 unit γ-interferon daily. […] Drug or normal saline treatment was continued for 8 weeks. All mice were sacrificed one week after discontinue of drug treatment, and the left lobe of liver from each mouse was taken for pathological examination. Examination of HE-stained slices of liver tissue were carried out as follows. In general, after 16 weeks of Schistosoma miracidia infection, the area of schistosomo egg granuloma would directly correlate to the severity of liver fibrosis. Therefore, the area of schistosomo egg granuloma was measured using a high-resolution, color pathology graphic analyzer (HPIAS-1000). The sum of area of 5 granuloma with abundant eggs and the sum of area of 5 granuloma with few eggs were measured for each slice.

[3] = system: Sprague-Dawley rats, Bleomycin-induced pulmonary fibrosis; assay: Bleomycin-induced rat pulmonary fibrosis, severity of fibrotic lesions; assay type: in vivo; settings: AKF-PD 500 mg/kg daily by gavage; 27 days post surgery; total of 8 rats
Method: Bleomycin-induced rat pulmonary fibrosis is selected for testing 5-methyl-1-(3′-fluorophenyl)-2(1H)-pyridone (AKF-PD). Male Sprague-Dawley rats (6-8 weeks old, 180 g˜220 g) were cared under regular condition. The animals were randomly divided into 3 groups: sham surgical group, model disease group, and disease/AKF-PD group. Six mg/kg/4 ml of Bleomycin was slowly infused into the trachea of rats in the model disease and disease/AKF-PD groups. Same amount of normal saline was infused into the trachea of rats in the sham surgical group.
Five hundred mg/kg AKF-PD was directly administrated by gavage to rats in the disease/AKF-PD group daily from 2 days prior to operation through 27 days after operation. Normal saline was used for all animals in both disease and sham surgical groups. The animals were sacrificed at 27 days post surgery and the lung tissues were removed for pathological sample preparation. The HE-stained lung tissues from each rat were examined under microscope to determine the frequency and severity of fibrotic lesion. Evaluation of lung tissue fibrosis was carried out according to the method of Szapiel et al., Bleomycin-induced interstitial pulmonary disease in the nude, athymic mouse. Am. Rev. Respir. Dis. 120:893-9(1979).

Kun Ming (KM) mice [4] = assay: Acute oral toxicity in Kun Ming mice, LD50 by Bliss method; settings: mouse, in vivo
Method: Male and female Kun Ming (KM) mice weighing between 18 g-22 g were acquired from the animal facility of Hsiang-Ya Medical College, the Central South University. Fifty Kun Ming mice were randomly assigned into 5 groups with 5 male and 5 female mice for each group. The animals went through fasting with a normal water supply before starting drug treatment (either AKF-PD or PIRFENIDONE). The drug was administrated orally by gavage. The volume of liquid drug was 20 ml/kg body weight. The range of dosage for AKF-PD administrated was from 1071 mg/kg to 6000 mg/kg. The dosage difference between two adjacent doses was 1:0.65 (a dose vs the next lower dose). All animals were maintained under a regular condition. Acute toxic reaction and death within 14 days of post drug treatment were recorded. Autopsy was performed on all dead animals and visual examination was performed on all organs.
LD50 was calculated according to Bliss method. […] The results of Table 15 are very close to those reported in the literature: 997.7 mg/kg (U.S. Pat. No. 5,310,562) and 1112 mg/kg(Pharmaceutical Care and Research 5:4823(2005)).

fibroblast = assay: Inhibition of fibroblast, side-by-side comparison of substituents; assay type: cell-based; settings: structural formula II, n=1
Kun Ming (KM) mice [5] = settings: cited from earlier work
[6] = compared with pyquiton and Interferon-γ treated

Q: Which “Histological Score for Interstitial Compartment” value [1] does the source give for `Cc1ccc(=O)n(-c2cccc(F)c2)c1` [AKF-PD, 1-(3′-fluorophenyl)-5-methyl-2(1H)-pyridone] here?
A: The value was 6.43 ± 1.28.

Q: And the “fibrotic nodule (immunohistological staining, FIG. 3)” value [2, 6]?
A: Its value is “much reduced fibrotic nodule”.

Q: What about the “type I collagen accumulation (immunohistological staining, FIG. 4)” value [2, 6] of the same compound?
A: The value was “much less type I collagen accumulation”.

Q: What about the “Schistosomo Egg Granuloma Area, Mean” value ([2]; granuloma with abundant eggs) of the same compound?
A: The value was 80155.11 μm^2.

Q: And the “Schistosomo Egg Granuloma Area, Mean” value ([2]; granuloma with few eggs)?
A: Its value is 30266.68 μm^2.

Q: And the “Number of rats with Severity of Fibrosis: Milder” value [3]?
A: The value was 6.

Q: And the “Number of rats with Severity of Fibrosis: Moderate” value [3]?
A: Its value is 1.

Q: And the “Number of rats with Severity of Fibrosis: None” value [3]?
A: Its value is 0.

Q: And the “Number of rats with Severity of Fibrosis: Sever” value [3]?
A: Its value is 1.

Q: What about the “LD50 as percent of that of PIRFENIDONE” value (Kun Ming (KM) mice [4]; both, Kun Ming (KM), 14 days) of the same compound?
A: The value was 30%.

Q: What about the “LD50 95% confidence limit” value (Kun Ming (KM) mice [4]; both, Kun Ming (KM), po, 14 days) of the same compound?
A: The value was “(2402.70 − 3695.73) mg/kg”.

Q: And the “toxicity relative to that of PIRFENIDONE” value (Kun Ming (KM) mice [4])?
A: The value was “one third”.

Q: And the activity inhibiting fibroblast (fibroblast)?
A: The activity inhibiting fibroblast was “activities inhibiting fibroblast”.

Q: With `Cc1ccc(=O)n(-c2ccccc2)c1` [PFD, 5-methyl-1-phenyl-2(1H)-pyridone, reference compound] as the compound, how does the “LD50 reported in the literature” value (Kun Ming (KM) mice [5]; Pharmaceutical Care and Research 5:4823(2005)) read?
A: Its value is 1112 mg/kg.

Q: And the “LD50 reported in the literature” value (Kun Ming (KM) mice [5]; U.S. Pat. No. 5,310,562)?
A: The value was 997.7 mg/kg.
